Test results: ChEMBL document CHEMBL1201862, “PubChem BioAssay data set” (2004)
Active and inactive are the calls of the source.

Tests used:
[1] = biological target: DNA dC->dU-editing enzyme APOBEC-3G (Homo sapiens, UniProt Q9HC16); test: inhibition of APOBEC3G ssDNA deamination – biochemical, fluorescence, single-stranded DNA substrate, SAR follow-up (AID 602136); format: functional; conditions: read-out: IC50_Mean
[2] = biological target: DNA dC->dU-editing enzyme APOBEC-3A (Homo sapiens, UniProt P31941); test: SAR analysis of small molecule inhibitors of APOBEC3A DNA Deaminase via a fluorescence-based single-stranded DNA deaminase assay.; format: functional; conditions: read-out: IC50_Mean
Sequence of DNA dC->dU-editing enzyme APOBEC-3A (P31941 whole entry): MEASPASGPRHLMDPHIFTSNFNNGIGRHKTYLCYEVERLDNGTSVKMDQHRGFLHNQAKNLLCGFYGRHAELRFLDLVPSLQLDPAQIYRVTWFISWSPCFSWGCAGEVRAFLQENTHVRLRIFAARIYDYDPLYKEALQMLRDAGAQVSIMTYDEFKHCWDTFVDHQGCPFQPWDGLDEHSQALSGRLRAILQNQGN

HEK293 [3] = test: inhibition of NOD1-driven NF-kB reporter – cell-based, luminescence, uHTS, primary screen (AID 1578); format: functional; conditions: Homo sapiens
HEK293 [4] = test: cells; format: functional, cell-based; conditions: Homo sapiens
HEK293 [5] = test: cells; format: functional, cell-based; conditions: Homo sapiens; remark: listed apart in the source
[6] = Trypanosoma cruzi growth suppression in host cells – NIH3T3 host cells, beta-gal luminescence, confirmation (AID 2044); format: functional, cell-based;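 note: intracellular parasites grown in NIH/3T3 mouse fibroblasts as host cells; luminescent beta-galactosidase reporter signal from transgenic T. cruzi replicating inside host cells; inhibitors lower the luminescence signal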
[7] = NIH3T3 cell viability loss – ATP luminescence, mouse fibroblasts, counter-screen, dose response (AID 2010); format: functional, cell-based;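 note: cells exposed to compound for about 90 hours before reading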
[8] = biological target: T1, Heat shock factor protein 1 (Mus musculus, UniProt P38532); test: enhancement of HSF1-driven luciferase signal – cell-based, NIH3T3, luminescence, dose retest, confirmation (AID 435004); format: functional;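 note: stress induced by proteasome inhibitor MG132 added 30 min after compound; luciferase reporter driven by HSF1 response element in NIH3T3 cells; actives raise luminescence as potentiators of the MG132 stress response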
T1 sequence (P38532 whole entry): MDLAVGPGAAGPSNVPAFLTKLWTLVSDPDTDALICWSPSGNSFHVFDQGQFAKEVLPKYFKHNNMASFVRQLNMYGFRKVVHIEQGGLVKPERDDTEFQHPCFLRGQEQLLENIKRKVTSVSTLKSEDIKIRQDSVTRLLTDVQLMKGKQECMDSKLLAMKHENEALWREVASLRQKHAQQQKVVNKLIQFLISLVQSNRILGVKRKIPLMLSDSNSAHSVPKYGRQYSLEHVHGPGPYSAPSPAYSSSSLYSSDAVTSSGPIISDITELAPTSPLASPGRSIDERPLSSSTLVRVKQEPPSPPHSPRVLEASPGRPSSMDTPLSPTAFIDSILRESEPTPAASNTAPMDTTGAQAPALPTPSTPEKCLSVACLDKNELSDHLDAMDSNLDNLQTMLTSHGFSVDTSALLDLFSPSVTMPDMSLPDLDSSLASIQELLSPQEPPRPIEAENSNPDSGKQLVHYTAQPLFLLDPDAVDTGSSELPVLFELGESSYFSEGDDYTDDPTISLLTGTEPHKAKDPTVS

[9] = decrease of insulin promoter-GFP reporter – imaging, high-content screening, mouse beta cells (AID 1628); format: functional; conditions: MIN6
[10] = MIN6 cell viability loss – mouse insulinoma, cytotoxicity control, dose response (AID 2122); format: functional;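 note: confirmatory high-throughput counterscreen run to flag cytotoxic compounds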
[11] = reduction of Shn3 3'UTR-driven luciferase in osteoblasts – cell-based, Clone20 osteoblasts, firefly luciferase, cherry-picked, dose response (AID 624132); format: functional;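 note: firefly luciferase luminescence from reporter carrying the Shn3 3'UTR in osteoblasts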
[12] = loss of viability in HepG2 cells – cell-based, CellTiter-Glo, cherry-picked, cytotoxicity control for Shn3 inhibitor project, dose response (AID 624134); format: functional
[13] = non-specific 3'UTR reporter inhibition in Clone20-Shn3RL – cell-based, Renilla luciferase, cherry-picked, counter-screen for Shn3 inhibitor project, dose response (AID 624133); format: functional
[14] = blockers of HIV-1 envelope-mediated cell-cell fusion – cherry-pick, dose response (AID 652057); format: functional, cell-based
[15] = viability loss in CEM21 cells – cell-based, CellTiter-Glo luminescence, cherry-picked, cytotoxicity control for viral fusion inhibitor project, dose response (AID 652042); format: functional;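 note: potency for signal decrease meaning cytotoxicity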
[16] = blockers of HIV-1 ZM109 envelope-driven cell-cell fusion – HeLa effector, CEM target cells, luciferase, cherry-pick, dose response (AID 652058); format: functional, cell-based;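 note: luciferase signal from HIV-1 Env mediated cell-cell fusion of effector and target cells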
[17] = off-target signal loss in HeLa-CEM21 co-culture – HeLa F-luc CTL cells, cherry-picked, counter-screen for HIV-1 Env fusion inhibitor project, dose response (AID 652040); format: functional, cell-based;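 note: potency for signal decrease marking cytotoxic or nonspecific inhibition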
[18] = luciferase reporter signal suppression in cells – H4 neuroglioma cells, luminescence, dose response (AID 1990); format: functional, cell-based
[19] = biological target: E3 ubiquitin-protein ligase Mdm2 (Homo sapiens, UniProt Q00987); test: MDM2-luc reporter signal enhancers, multi-concentration potency testing, MDM2 ubiquitin-protein ligase inhibitor program, whole-cell format, luminescence detection, 384-well microplate (AID 1394); format: functional;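 note: MDM2 E3 inhibitors raise luminescence so EC50 is for signal enhancement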
Sequence of E3 ubiquitin-protein ligase Mdm2 (Q00987 whole entry): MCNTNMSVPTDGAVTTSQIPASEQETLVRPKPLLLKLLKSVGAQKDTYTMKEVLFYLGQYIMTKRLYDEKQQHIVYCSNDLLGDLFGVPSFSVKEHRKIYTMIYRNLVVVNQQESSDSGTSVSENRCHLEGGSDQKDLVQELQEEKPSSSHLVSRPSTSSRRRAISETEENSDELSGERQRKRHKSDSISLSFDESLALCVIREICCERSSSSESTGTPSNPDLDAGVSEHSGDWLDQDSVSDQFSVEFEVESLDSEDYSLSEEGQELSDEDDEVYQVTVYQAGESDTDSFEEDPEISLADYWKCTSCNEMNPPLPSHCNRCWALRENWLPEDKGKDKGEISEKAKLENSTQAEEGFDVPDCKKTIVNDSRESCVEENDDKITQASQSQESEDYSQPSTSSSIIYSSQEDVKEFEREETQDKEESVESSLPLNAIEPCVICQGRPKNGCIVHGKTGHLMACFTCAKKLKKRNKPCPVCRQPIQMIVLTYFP

[20] = Luminescence Cell-Based Dose Response HTS to Identify Inhibitors of 5'UTR Stem-Loop Driven Prion Protein mRNA Translation in H4 Neuroglioblastoma Cells. [Related pubchem assays: 1827 (Project Summary), 1813 (Primary HTS)]; format: functional
Beta-galactosidase = Beta-galactosidase (Escherichia coli, UniProt Q8VNN2); test: PubChem AID 485352; format: functional
Sequence of Beta-galactosidase (Q8VNN2 whole entry): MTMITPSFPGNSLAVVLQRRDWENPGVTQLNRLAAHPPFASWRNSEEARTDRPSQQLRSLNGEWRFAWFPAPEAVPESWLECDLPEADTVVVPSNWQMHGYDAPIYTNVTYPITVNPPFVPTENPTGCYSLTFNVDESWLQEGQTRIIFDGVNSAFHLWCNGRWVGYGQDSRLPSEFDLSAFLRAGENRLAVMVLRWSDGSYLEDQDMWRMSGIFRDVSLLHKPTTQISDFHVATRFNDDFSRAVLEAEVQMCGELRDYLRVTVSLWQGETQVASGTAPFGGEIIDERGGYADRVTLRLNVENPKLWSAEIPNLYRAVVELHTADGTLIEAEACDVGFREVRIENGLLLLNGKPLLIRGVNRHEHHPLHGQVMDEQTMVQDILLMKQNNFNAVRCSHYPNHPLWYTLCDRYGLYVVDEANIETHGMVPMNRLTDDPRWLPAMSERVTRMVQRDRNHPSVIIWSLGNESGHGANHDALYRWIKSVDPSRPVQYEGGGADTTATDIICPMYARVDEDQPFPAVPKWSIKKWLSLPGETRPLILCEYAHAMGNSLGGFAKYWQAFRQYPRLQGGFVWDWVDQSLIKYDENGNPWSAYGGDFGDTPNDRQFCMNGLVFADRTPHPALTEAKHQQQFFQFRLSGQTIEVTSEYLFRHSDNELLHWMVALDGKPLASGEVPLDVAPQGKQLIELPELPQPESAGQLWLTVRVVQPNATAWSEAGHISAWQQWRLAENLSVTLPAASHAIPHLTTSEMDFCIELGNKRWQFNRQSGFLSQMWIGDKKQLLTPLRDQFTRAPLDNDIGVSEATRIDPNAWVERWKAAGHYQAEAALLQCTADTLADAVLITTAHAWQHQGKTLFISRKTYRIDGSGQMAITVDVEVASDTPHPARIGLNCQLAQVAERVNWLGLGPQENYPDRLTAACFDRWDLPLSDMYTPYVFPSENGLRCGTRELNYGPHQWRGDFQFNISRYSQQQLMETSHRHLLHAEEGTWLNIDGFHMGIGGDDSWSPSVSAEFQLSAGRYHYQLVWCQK

[21] = biological target: G-protein coupled receptor 55 (Homo sapiens, UniProt Q9Y2T6); test: inhibition of LPI-stimulated GPR55 beta-arrestin translocation – imaging, U2OS, beta-arrestin-GFP, LPI agonist, primary screen (AID 2013); format: functional;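 note: antagonist potency measured as reduced agonist-driven arrestin aggregation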
Sequence of G-protein coupled receptor 55 (Q9Y2T6 whole entry): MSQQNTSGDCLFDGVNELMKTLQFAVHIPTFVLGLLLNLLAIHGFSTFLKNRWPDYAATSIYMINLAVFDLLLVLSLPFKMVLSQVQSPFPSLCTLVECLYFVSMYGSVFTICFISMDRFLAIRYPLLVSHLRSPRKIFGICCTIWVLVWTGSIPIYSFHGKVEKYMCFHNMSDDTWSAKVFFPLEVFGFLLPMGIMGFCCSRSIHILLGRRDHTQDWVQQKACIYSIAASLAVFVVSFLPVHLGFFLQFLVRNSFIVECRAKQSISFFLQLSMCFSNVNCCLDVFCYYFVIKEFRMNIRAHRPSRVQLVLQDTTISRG

[22] = biological target: T2, Type-1 angiotensin II receptor (Homo sapiens, UniProt P30556); test: antagonism of angiotensin II type 1 receptor – cell-based, uHTS hits, selectivity assay for APJ receptor antagonist project, dose response (AID 463214); format: functional;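 note: antagonist potency against angiotensin II stimulated AT1 response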
T2 sequence (P30556 whole entry): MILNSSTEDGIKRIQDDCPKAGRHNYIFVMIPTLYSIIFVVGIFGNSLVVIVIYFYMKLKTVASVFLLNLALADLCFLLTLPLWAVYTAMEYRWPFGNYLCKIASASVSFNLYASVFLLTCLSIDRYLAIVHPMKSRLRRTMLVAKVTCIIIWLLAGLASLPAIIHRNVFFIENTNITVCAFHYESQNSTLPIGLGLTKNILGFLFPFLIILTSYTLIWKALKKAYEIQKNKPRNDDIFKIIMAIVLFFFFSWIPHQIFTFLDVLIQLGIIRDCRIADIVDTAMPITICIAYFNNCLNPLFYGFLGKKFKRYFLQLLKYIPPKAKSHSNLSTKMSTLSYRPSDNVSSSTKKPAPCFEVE

Jurkat = test: blockers of NF-kB activation in T cells – Jurkat, luciferase reporter, luminescence, B- and T-cell, dose response (AID 489004); format: functional, cell-based; conditions: Homo sapiens;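 note: NF-kB luciferase reporter Jurkat cells stimulated with PMA plus ionomycin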
[23] = HEK-293T viability loss, compound-treated – cell-based, uHTS hits, cytotoxicity control for B/T-cell NF-kB inhibitor project, dose response (AID 489019); format: functional;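 note: IC50 reflects cytotoxicity as loss of cell viability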
INS1 = test: INS-1E survival protection against cytokine death – cell-based, luminescence, retest, dose response (AID 449756); format: functional; conditions: Rattus norvegicus;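 note: cell death triggered by IL-1 beta plus TNF-alpha plus IFN-gamma mixture; protective hits raise ATP signal compared with cytokine alone wells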
[24] = biological target: Photoreceptor-specific nuclear receptor (Homo sapiens, UniProt Q9Y5X4); format: functional, cell-based;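 note: CHO-S cells with Gal4-NCOR and VP16-NR2E3 two-hybrid luciferase reporter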
Sequence of Photoreceptor-specific nuclear receptor (Q9Y5X4 whole entry, the tested form may be a part): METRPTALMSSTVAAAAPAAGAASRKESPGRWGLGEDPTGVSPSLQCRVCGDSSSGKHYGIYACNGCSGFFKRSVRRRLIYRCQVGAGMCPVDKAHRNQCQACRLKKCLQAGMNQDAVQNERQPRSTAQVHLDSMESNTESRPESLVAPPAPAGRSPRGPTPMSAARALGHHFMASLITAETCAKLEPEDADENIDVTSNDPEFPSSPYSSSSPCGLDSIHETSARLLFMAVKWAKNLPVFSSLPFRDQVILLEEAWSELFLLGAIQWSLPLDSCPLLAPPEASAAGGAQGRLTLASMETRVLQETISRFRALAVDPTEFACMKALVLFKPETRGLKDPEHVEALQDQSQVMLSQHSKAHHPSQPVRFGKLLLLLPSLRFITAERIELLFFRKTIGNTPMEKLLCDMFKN

Sequence of DNA dC->dU-editing enzyme APOBEC-3G (Q9HC16 whole entry): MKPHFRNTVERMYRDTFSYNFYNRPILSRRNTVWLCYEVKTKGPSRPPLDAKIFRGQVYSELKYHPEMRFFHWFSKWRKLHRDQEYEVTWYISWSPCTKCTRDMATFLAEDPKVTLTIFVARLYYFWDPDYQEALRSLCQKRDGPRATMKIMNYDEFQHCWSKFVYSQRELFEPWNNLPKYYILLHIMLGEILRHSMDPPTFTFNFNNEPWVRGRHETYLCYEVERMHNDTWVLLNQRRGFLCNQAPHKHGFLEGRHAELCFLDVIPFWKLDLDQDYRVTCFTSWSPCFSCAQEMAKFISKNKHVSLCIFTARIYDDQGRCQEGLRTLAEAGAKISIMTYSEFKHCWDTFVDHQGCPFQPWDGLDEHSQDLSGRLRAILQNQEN

In the case of O=C(CSc1nnc2scc(-c3ccccc3)n12)Nc1cccc(C(F)(F)F)c1, the IC50 [1] is reported as > 99 µM (inactive) and the IC50 [2] is reported as > 99 µM (inactive).

In the case of Cc1cc(C(=O)N/N=C/c2ccc([N+](=O)[O-])s2)c2ccccc2n1, the EC50 (HEK293 [3]) is reported as 7.6 µM (active), the IC50 (HEK293 [4]) is reported as 15.8 µM (active) and the IC50 (HEK293 [5]) is reported as > 20 µM (inactive). For the same compound, the EC50 [6] was 0.623 µM (active), the EC50 [7] was > 30 µM (not active) and the EC50 [8] was 13 µM (active).

With COc1ccc(Nc2cc(C)nc(NCc3ccccc3)n2)cc1 the IC50 [9] was 1.14 µM (active), the IC50 [10] was 0.699 µM (active) and the EC50 [6] was 0.12 µM (active). For the same compound, the EC50 [7] was > 60 µM (not active), the AC50 [11] was 3.9 µM (active) and the AC50 [12] was 22 µM (active). For the same compound, the AC50 [13] was 0.565 µM (active), the AC50 [14] was 8.45 µM (active) and the AC50 [15] was 26.7 µM (active). The AC50 [16] was 3.16 µM (active) and the AC50 [17] was 21.2 µM (active).

With C=C1C(=O)O[C@@H]2C[C@@H](C)[C@@H]3C=CC(=O)[C@@]3(C)[C@@H](O)[C@H]12 [HELENALIN] the EC50 [18] was 4.62 µM (inconclusive), the EC50 [19] was 0.42 µM (active) and the EC50 [20] was 8.32 µM (active). For the same compound, the EC50 (Beta-galactosidase) was > 40 µM (inactive), the IC50 [21] was 2.64 µM (active) and the IC50 [22] was 18.6 µM (active). The IC50 (Jurkat) was 1.02 µM (active), the IC50 [23] was > 80 µM (inactive) and the AC50 (INS1) was 2.27 µM (active). For the same compound, the AC50 [11] was 0.825 µM (active), the AC50 [12] was 4.35 µM (active) and the AC50 [13] was 1.53 µM (active). For the same compound, the IC50 [24] was 1.92 µM (active).
